The values below are quoted from earlier work in patent publication US20050096369A1, “Compositions and methods for treating cellular proliferation disorders” (priority 2003, published 2005).

For data set [1], the system named is voltage gated calcium channels. Conditions: cultured rat hippocampal neurons; concentration and voltage dependant (Weng et al., 2003).
The subject of data set [2] is cell lines derived from human malignancies. To be noted: Pizer et al.
A further data set relates to leukemia cells. Conditions: Zhu Ningxi, et al.
For data set [3] the following is noted: Merck Index.
The subject of data set [4] is voltage-gated sodium channel. Conditions: PDR and Zhou, 2003.
The next data set deals with calcium-channel. To be noted: PDR and Zhou, 2003.
Assay in data set [5]: not given
This is another data set of the same source.

Turning to `N=C(N)NCCCCN` [Agmatine, agmatine], the “effect on voltage gated calcium channels” value in data set [1] is “block voltage gated calcium channels”.
In the case of `C/C=C/C/C=C/CCC(=O)[C@H]1O[C@H]1C(N)=O` [cerulenin], the cytotoxicity entry in data set [2] is listed as “selectively cytotoxic to cell lines derived from human malignancies”.
With `O=C1CCC[C@@H]2[C@H]3CCCN4CCC[C@@H](CN12)[C@@H]34` [matrine], in the data set on leukemia cells, the “effect on leukemia cell differentiation” value was “could help leukemia cells differentiate into mature and normal white blood cells”. The water solubility result in data set [3] was “water soluble”. The “time to excretion by the kidneys” value (in vivo) was no more than 24 h. For the same compound, the “stability in the blood” value (not converted by the liver) was “stable in the blood”.
Take `O=C1CCC[C@@H]2[C@H]3CCC[N+]4([O-])CCC[C@@H](CN12)[C@@H]34` (stereo partly drawn) [oxymatrine]: the “fate when administered by injection” value (injection) is “stable and is excreted as oxymatrine”. Besides, the “fate when taken orally” value (oral) was “converted to matrine”.
Turning to `CCOC(=O)C1=C[C@]2(CC)CCCN3CCc4c(n1c1ccccc41)[C@@H]32` [vinpocetine, eburnamenine-14-carboxylic acid ethyl ester], the “voltage-gated sodium channel blocking” value in data set [4] is on record as “voltage-gated sodium channel blocking activity”. The calcium-channel blocking entry in the data set with calcium-channel is “calcium-channel blocking activity”. In addition, in data set [5] (after ingestion), the “time to peak plasma levels” value is “one to one and a half”. The “time in which most of a dose is excreted” value in data set [5] (excreted in urine as apovincaminic acid) is no more than 24 h. In data set [5] (following ingestion), the elimination half-life result is listed as “one to two”. Also, the absorption result in data set [5] (given with food) is reported as “up to 60 % of an ingested dose”. Besides, the “absorption of an ingested dose” value in data set [5] (on an empty stomach) is no less than 7%.
